# Patent US10793892B2, “Method for detecting the presence of expanded spectrum β-lactamase-producing bacteria in a sample” (INSERM (INSTITUT NATIONAL DE LA SANTE ET DE LA RECHERCHE …, priority 2011, dated 2020)
# Legend:
# M. morganii = experiment: Susceptibility testing, MIC by Etest; type: cell-based, Morganella morganii; conditions: M. morganii Wild-type, chromosome-encoded cephalosporinase, n=2
# Protocol: (§1) Susceptibility testing was performed by determining MIC values using the Etest® (AB bioMérieux; Solna, Sweden) on Mueller-Hinton agar plates at 37° C. and results were recorded according to US guidelines (CLSI), as updated in 2012 (2). The breakpoints for cefotaxime are susceptible (S)≤1 and resistant (R)≥4 μg/ml, and for ceftazidime S≤4 and R≥16 μg/ml.
# E. aerogenes = experiment: Susceptibility testing, MIC by Etest; type: cell-based, Enterobacter aerogenes
# Protocol: as §1
# P. stuartii = experiment: Susceptibility testing, MIC by Etest; type: cell-based, Providencia stuartii; conditions: P. stuartii TEM-24, n=1
# Protocol: as §1
# S. enterica = experiment: Susceptibility testing, MIC by Etest; type: cell-based, Salmonella enterica
# Protocol: as §1
# E. coli = experiment: Susceptibility testing, MIC by Etest; type: cell-based, Escherichia coli
# Protocol: as §1
# P. mirabilis = experiment: Susceptibility testing, MIC by Etest; type: cell-based, Proteus mirabilis
# Protocol: as §1
# S. marcescens = experiment: Susceptibility testing, MIC by Etest; type: cell-based, Serratia marcescens; conditions: S. marcescens Wild-type, chromosome-encoded cephalosporinase, n=2
# Protocol: as §1
# C. brakii = experiment: Susceptibility testing, MIC by Etest; type: cell-based; conditions: C. brakii Wild-type, chromosome-encoded cephalosporinase, n=1
# Protocol: as §1
# E. sakazakii = experiment: Susceptibility testing, MIC by Etest; type: cell-based; conditions: overexpressed chromosome-encoded cephalosporinase, n=1
# Protocol: as §1
# S. ficaria = experiment: Susceptibility testing, MIC by Etest; type: cell-based; conditions: S. ficaria Wild-type, chromosome-encoded cephalosporinase, n=1
# Protocol: as §1
# K. oxytoca = experiment: Susceptibility testing, MIC by Etest; type: cell-based, Klebsiella oxytoca; conditions: K. oxytoca Wild-type penicillinase, n=1
# Protocol: as §1
# K. pneumoniae = experiment: Susceptibility testing, MIC by Etest; type: cell-based, Klebsiella pneumoniae
# Protocol: as §1
# E. cloacae = experiment: Susceptibility testing, MIC by Etest; type: cell-based, Enterobacter cloacae
# Protocol: as §1
# C. freundii = experiment: Susceptibility testing, MIC by Etest; type: cell-based, Citrobacter freundii
# Protocol: as §1
# Enterobacteriaceae = type: biochemical; conditions: all CTX-M producers (n=147); tazobactam added to cefotaxime well
# Protocol: Strains were isolated on Mueller-Hinton agar (Biorad, Marnes-la-Coquette, France) and incubated at 37° C. for 16 h to 24 h before performing the NDP rapid ESBL test as follows. One calibrated inoculated loop (10 μl) of the tested strain was resuspended in 150 μl of 20 mM Tris-HCl lysis buffer previously distributed in Microbead tubes (Ultraclean Microbial DNA isolation kit Bead Tubes, MO BIO Laboratories, Carlsbad, USA). Mechanical lysis of bacteria was performed by strong agitation of Microbead tubes using a vortex adapter (MO BIO Laboratories) for 30 min at room temperature. This bacterial suspension was centrifuged at 10,000×g at room temperature for 5 min. Thirty μl of the supernatant was mixed in a well of a 96-well tray with 100 μl of a 1 ml solution made of 3 mg of purified cefotaxime sodium salt (Sigma-Aldrich, Saint-Quentin-Fallavier, France) in a pH 7.8 phenol red solution. […] The phenol red solution was made by taking 2 ml of a concentrated pH 8 phenol solution (made from a mixture of phenol red 0.5% in distilled water) to which 16.6 ml of distilled water was added. The pH value was then adjusted to a 7.8 value by adding drops of a 1 N NaOH solution. Mixture of the phenol red solution and the enzymatic suspension being tested was incubated at 37° C. for 30 min. Similarly, culture extracts were analyzed in wells containing cefotaxime and tazobactam (4 mg/ml). […]
smiles,measurement,setting,value
"CC(C)(O/N=C(\C(=O)N[C@@H]1C(=O)N2C(C(=O)[O-])=C(C[n+]3ccccc3)CS[C@H]12)c1csc(N)n1)C(=O)O [CAZ, ceftazidime]",MICs range,M. morganii,0.09 to 1 µg/mL
same,MICs range,"E. aerogenes; E. aerogenes TEM-121, n=1",>32 µg/mL
same,MICs range,"E. aerogenes; E. aerogenes Wild-type, chromosome-encoded cephalosporinase, n=1",0.25 µg/mL
same,MICs range,P. stuartii,8 µg/mL
same,MICs range,"S. enterica; S. enterica CTX-M-1, n=1",0.75 µg/mL
same,MICs range,"S. enterica; S. enterica Wild-type, no resistance, n=1",0.19 µg/mL
same,MICs range,"E. coli; E. coli ACC-1, n=1, first line",>32 µg/mL
same,MICs range,"E. coli; E. coli ACC-1, n=1, second line",>32 µg/mL
same,MICs range,"E. coli; E. coli CMY-2, n=1",>32 µg/mL
same,MICs range,"E. coli; E. coli CTX-M-1, n=16",0.5 to 2 µg/mL
same,MICs range,"E. coli; E. coli CTX-M-2, n=3",1.5 to 4 µg/mL
same,MICs range,"E. coli; E. coli CTX-M-3, n=1",4 µg/mL
same,MICs range,"E. coli; E. coli CTX-M-9, n=1",0.19 µg/mL
same,MICs range,"E. coli; E. coli CTX-M-14, n=15",0.5 to 4 µg/mL
same,MICs range,"E. coli; E. coli CTX-M-15, n=46",0.5 to 24 µg/mL
same,MICs range,"E. coli; E. coli CTX-M-27, n=6",0.5 to 4 µg/mL
same,MICs range,"E. coli; E. coli CTX-M-28, n=1",8 µg/mL
same,MICs range,"E. coli; E. coli CTX-M-32, n=1",6 µg/mL
same,MICs range,"E. coli; E. coli CTX-M-97, n=1",2 µg/mL
same,MICs range,"E. coli; E. coli DHA-1, n=1",1 µg/mL
same,MICs range,"E. coli; E. coli SHV-2a, n=3",2 to 4 µg/mL
same,MICs range,"E. coli; E. coli SHV-3, n=1",>32 µg/mL
same,MICs range,"E. coli; E. coli SHV-12, n=1",8 µg/mL
same,MICs range,"E. coli; E. coli TEM-1 penicillinase, n=5",0.09 to 0.12 µg/mL
same,MICs range,"E. coli; E. coli TEM-12, n=1",8 µg/mL
same,MICs range,"E. coli; E. coli TEM-29, n=2",4 µg/mL
same,MICs range,"E. coli; E. coli TEM-133, n=1",12 µg/mL
same,MICs range,"E. coli; E. coli VEB-1, n=1",>32 µg/mL
same,MICs range,"E. coli; E. coli Wild-type, no resistance, n=5",0.05 to 0.19 µg/mL
same,MICs range,"P. mirabilis; P. mirabilis ACC-1, n=1",>32 µg/mL
same,MICs range,"P. mirabilis; P. mirabilis CTX-M-14, n=1",0.75 µg/mL
same,MICs range,"P. mirabilis; P. mirabilis CTX-M-15, n=1",8 µg/mL
same,MICs range,"P. mirabilis; P. mirabilis PER-1, n=1",>32 µg/mL
same,MICs range,"P. mirabilis; P. mirabilis TEM-21, n=1",4 µg/mL
same,MICs range,"P. mirabilis; P. mirabilis TEM-52, n=1",16 µg/mL
same,MICs range,S. marcescens,0.09 µg/mL
same,MICs range,C. brakii,0.25 µg/mL
same,MICs range,E. sakazakii,>32 µg/mL
same,MICs range,S. ficaria,0.09 µg/mL
same,MICs range,K. oxytoca,0.06 µg/mL
same,MICs range,"K. pneumoniae; K. pneumoniae CTX-M-3, n=1",1.5 µg/mL
same,MICs range,"K. pneumoniae; K. pneumoniae CTX-M-14, n=3",0.5 to 6 µg/mL
same,MICs range,"K. pneumoniae; K. pneumoniae DHA-1, n=1",>32 µg/mL
same,MICs range,"K. pneumoniae; K. pneumoniae DHA-2, n=1",>32 µg/mL
same,MICs range,"K. pneumoniae; K. pneumoniae GES-1, n=1",4 µg/mL
same,MICs range,"K. pneumoniae; K. pneumoniae SHV-2a, n=2",1 to 4 µg/mL
same,MICs range,"K. pneumoniae; K. pneumoniae SHV-2a, n=4",2 to 4 µg/mL
same,MICs range,"K. pneumoniae; K. pneumoniae SHV-5, n=2",16 to 32 µg/mL
same,MICs range,"K. pneumoniae; K. pneumoniae SHV-12, n=1",8 µg/mL
same,MICs range,"K. pneumoniae; K. pneumoniae SHV-12, n=2",16 to 32 µg/mL
same,MICs range,"K. pneumoniae; K. pneumoniae SHV-28, n=3",>32 µg/mL
same,MICs range,"K. pneumoniae; K. pneumoniae TEM-52, n=2",>32 µg/mL
same,MICs range,"K. pneumoniae; K. pneumoniae Wild-type penicillinase, n=2",0.03 µg/mL
same,MICs range,"E. cloacae; E. cloacae CTX-M-14, n=1",8 µg/mL
same,MICs range,"E. cloacae; E. cloacae CTX-M-15, n=17",2 to 16 µg/mL
same,MICs range,"E. cloacae; E. cloacae GES-5, n=1",>32 µg/mL
same,MICs range,"E. cloacae; E. cloacae PER-1, n=1",>32 µg/mL
same,MICs range,"E. cloacae; E. cloacae SHV-5, n=1",>32 µg/mL
same,MICs range,"E. cloacae; E. cloacae TEM-3, n=2",>16 µg/mL
same,MICs range,"E. cloacae; E. cloacae VEB-1, n=1",>32 µg/mL
same,MICs range,"E. cloacae; E. cloacae Wild-type, chromosome-encoded cephalosporinase, n=5",0.12 to 0.38 µg/mL
same,MICs range,"E. cloacae; E. cloacae, overexpressed chromosome-encoded cephalosporinase, n=2",>32 µg/mL
same,MICs range,"E. cloacae; E. cloacae, overexpressed chromosome-encoded cephalosporinase, n=3",>32 µg/mL
same,MICs range,"C. freundii; C. freundii TEM-3, n=1",>16 µg/mL
same,MICs range,"C. freundii; C. freundii Wild-type, chromosome-encoded cephalosporinase, n=1",0.25 µg/mL
C[C@]1(Cn2ccnn2)[C@H](C(=O)O)N2C(=O)C[C@H]2S1(=O)=O [tazobactam],color of the wells,Enterobacteriaceae,remained red
